The values below come from ChEMBL document CHEMBL5604063, “ASAP - DENV-2 NS2B-NS3 protease fluorescence dose response” (2024).

Values joined by “and” are separate entries in the source; they are usually repeats but may differ in a detail not shown here. Equal values may be shown once.

Experiment [1] addresses T1, Genome polyprotein (dengue virus type 2, UniProt P29990). The experiment is classed as functional, Thailand/16681/1984.
Experiment [2] deals with T1, Genome polyprotein. The experiment is classed as functional, Thailand/16681/1984. This is another data set of the same source.

T1 sequence (P29990 1346-1475 limits assumed): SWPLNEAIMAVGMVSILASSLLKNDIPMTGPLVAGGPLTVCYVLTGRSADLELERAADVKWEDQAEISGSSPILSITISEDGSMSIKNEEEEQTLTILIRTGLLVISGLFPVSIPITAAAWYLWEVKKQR
T1 sequence (P29990 1476-2093 limits assumed): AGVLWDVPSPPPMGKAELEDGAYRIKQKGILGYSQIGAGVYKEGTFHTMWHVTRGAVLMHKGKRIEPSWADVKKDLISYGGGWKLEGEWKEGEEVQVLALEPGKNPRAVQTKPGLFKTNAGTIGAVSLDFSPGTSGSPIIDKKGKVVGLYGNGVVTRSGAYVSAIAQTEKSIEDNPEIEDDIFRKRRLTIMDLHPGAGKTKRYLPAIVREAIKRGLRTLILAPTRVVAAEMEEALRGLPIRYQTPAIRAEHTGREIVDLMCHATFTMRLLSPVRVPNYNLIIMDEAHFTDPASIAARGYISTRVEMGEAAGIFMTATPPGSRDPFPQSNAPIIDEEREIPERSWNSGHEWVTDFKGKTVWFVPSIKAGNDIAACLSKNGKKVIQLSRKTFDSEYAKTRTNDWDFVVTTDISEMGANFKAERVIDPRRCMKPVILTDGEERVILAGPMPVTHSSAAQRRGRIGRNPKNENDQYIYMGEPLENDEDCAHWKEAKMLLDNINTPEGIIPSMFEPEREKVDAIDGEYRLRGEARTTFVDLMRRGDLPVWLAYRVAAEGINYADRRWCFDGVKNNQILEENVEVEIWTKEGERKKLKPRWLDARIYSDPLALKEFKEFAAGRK

As a reminder, the IC50 is the concentration that inhibits the measured activity by half. On to `CN(c1ccc2c(c1)CNC2)[C@H](C(=O)NCC(F)F)c1cc(Cl)cc(C2CC2)c1`, for which the IC50 in experiment [1] was more than 99.5 µM; in experiment [2], more than 100 µM.
Regarding `COC1CCN(C(=O)c2ccnc(NC(=O)c3cc(C4CC4)n(C)c3C)c2)CC1`, the IC50 in experiment [1] is more than 99.5 µM; in experiment [2], more than 100 µM.
The corresponding values for `O=C(NCC(F)F)[C@H](Nc1ccc2c(c1)CNC2)c1cc(Cl)ccc1Sc1ccccc1` are more than 99.5 µM and more than 100 µM.
The like results for `Cc1c(C(=O)Nc2cc(C(=O)N[C@H]3CNC(=O)C3)ccn2)cc(C2CC2)n1C` were, in that order, more than 99.5 µM and more than 100 µM.
The corresponding values for `Cc1c(C(=O)Nc2cc(C(=O)N3CCC[C@H]3C(N)=O)ccn2)cc(C2CC2)n1C` are more than 99.5 µM and more than 100 µM.
Consider `COC1CN(C(=O)c2ccnc(NC(=O)c3cc(C4CC4)n(C)c3C)c2)C1`, for which the IC50 in experiment [1] was more than 99.5 µM; in experiment [2], more than 100 µM.
The corresponding values for `Cc1cc(C(=O)Nc2ccc3c(c2)CNC3)cc2nc[nH]c12` are more than 99.5 µM and more than 100 µM.
Consider `O=C(Nc1ccc2c(c1)CNC2)c1ccc2[nH]cc(C3CCNCC3)c2c1`, for which the IC50 in experiment [1] is 19.5 µM and 31.3 µM; in experiment [2], 75.9 µM.
`COCc1cc(Cl)cc([C@H](Nc2ccc3c(c2)CNC3)C(=O)NCC(F)F)c1`: the IC50 in experiment [1] is more than 99.5 µM; in experiment [2], more than 100 µM.
With `N#Cc1ccc(-c2nc3c(C(=O)Nc4ccc5c(c4)CNC5)cc(F)cc3[nH]2)cc1`, the concentration for half-maximal inhibition (IC50) was 2.9 µM and 2.52 µM in experiment [1]; 11.3 µM and 10.2 µM in experiment [2].
Regarding `O=C(Nc1cc(-c2cccnc2)ccn1)c1cc(C2CC2)[nH]c(=O)c1`, the figures for the IC50 in experiment [1] and in experiment [2] were more than 99.5 µM and more than 100 µM, respectively.
The corresponding values for `C=CC[C@H]1c2ccc(NC(=O)c3cc(Br)cc4[nH]ccc34)cc2CN1C(=O)OC(C)(C)C` are more than 99.5 µM and more than 100 µM.
The like results for `CCNC(=O)c1ccnc(NC(=O)c2cc(C3CC3)n(C)c2C)c1` were, in that order, more than 99.5 µM and more than 100 µM.
The like results for `N[C@H]1COC[C@H]1n1cc(C(=O)Nc2cc(-c3cccnc3)ccn2)cn1` were, in that order, more than 99.5 µM and more than 100 µM.
Turning to `Cc1c(C(=O)Nc2cc(C(=O)N[C@H]3CCOC3)ccn2)cc(C2CC2)n1C`, the IC50 was more than 99.5 µM in experiment [1] and more than 100 µM in experiment [2].
The corresponding values for `Cc1c(C(=O)Nc2cc(C(=O)N3C[C@@H]4[C@H](O)[C@@H]4C3)ccn2)cc(C2CC2)n1C` are more than 99.5 µM and more than 100 µM.
For the compound `Cc1c(C(=O)Nc2cc(C(=O)N3CC[C@H](C(N)=O)C3)ccn2)cc(C2CC2)n1C`, the IC50 in experiment [1] is more than 99.5 µM; in experiment [2], more than 100 µM.
The corresponding values for `O=C1Cc2c(cccc2C(=O)NC2CCC3(CC2)COC3)N1` are more than 99.5 µM and more than 100 µM.
The like results for `Cc1c(C(=O)Nc2cc(C(=O)N[C@H]3CCNC3=O)ccn2)cc(C2CC2)n1C` were, in that order, more than 99.5 µM and more than 100 µM.
The like results for `Cc1c(C(=O)Nc2cc(C(=O)N3CC[C@H]3CO)ccn2)cc(C2CC2)n1C` were, in that order, more than 99.5 µM and more than 100 µM.
In the case of `CC(C)n1cnc2cc(C(=O)Nc3ccc4c(c3)CNC4)ccc21`, the figures for the IC50 in experiment [1] and in experiment [2] were more than 99.5 µM and more than 100 µM, respectively.
The corresponding values for `Cc1c(C(=O)Nc2cc(C(=O)Nc3cccnc3)ccn2)cc(C2CC2)n1C` are more than 99.5 µM and more than 100 µM.
On to `O=C(NCC(F)F)[C@H](Nc1ccc2c(c1)CNC2)c1cc(Cl)cc(Cl)c1Cl`, for which the values for the IC50 in experiment [1] and in experiment [2] were more than 99.5 µM and more than 100 µM, respectively.
With `Cc1c(C(=O)Nc2cc(C(=O)N3CC[C@H](O)C3)ccn2)cc(C2CC2)n1C`, the IC50 in experiment [1] is more than 99.5 µM; in experiment [2] it was more than 100 µM.
The like results for `CS(=O)(=O)c1cc2c(cc1NC(=O)c1cc(F)cc3[nH]ncc13)CNC2` were, in that order, more than 99.5 µM and more than 100 µM.
Consider `Cc1c(C(=O)Nc2cc(C(=O)N3CC[C@H](CO)C3)ccn2)cc(C2CC2)n1C`, for which the values for the IC50 in experiment [1] and in experiment [2] were more than 99.5 µM and more than 100 µM, respectively.
In the case of `Cc1ccc(-c2nc3c(C(=O)Nc4ccc5c(c4)CNC5)cc(F)cc3[nH]2)cc1`, the IC50 is 16.4 µM and 39.9 µM in experiment [1]; 70.2 µM in experiment [2].
On to `Cc1c(C(=O)Nc2cc(C(=O)N3CC(CO)C3)ccn2)cc(C2CC2)n1C`, for which the IC50 is more than 99.5 µM in experiment [1] and more than 100 µM in experiment [2].
The like results for `O=C(Nc1ccc2c(c1)CN[C@H]2[C@H](O)CO)c1cc(F)cc2[nH]ncc12` were, in that order, more than 99.5 µM and more than 100 µM.
In the case of `NCCc1cc(C(=O)Nc2cc(-c3cccnc3)ccn2)no1`, the IC50 in experiment [1] is more than 99.5 µM; in experiment [2], more than 100 µM.
The like results for `Cc1c(C(=O)Nc2cc(C(=O)N(C)[C@H]3C[C@H](O)C3)ccn2)cc(C2CC2)n1C` were, in that order, more than 99.5 µM and more than 100 µM.
The like results for `Cc1c(C(=O)Nc2cc(C(=O)N3Cc4cn[nH]c4C3)ccn2)cc(C2CC2)n1C` were, in that order, more than 99.5 µM and more than 100 µM.
The corresponding values for `CNC(=O)C[C@H]1CC[C@@H](NC(=O)c2cccc3c2CC(=O)N3)CC1` are more than 99.5 µM and more than 100 µM.
As to `CO[C@H]1CCCN(C(=O)c2ccnc(NC(=O)c3cc(C4CC4)n(C)c3C)c2)C1`, the IC50 is more than 99.5 µM in experiment [1] and more than 100 µM in experiment [2].
For the compound `Cn1ccc(-c2cc(F)cc(C(=O)Nc3ccc4c(c3)CNC4)c2)cc1=O`, the values for the IC50 in experiment [1] and in experiment [2] were more than 99.5 µM and more than 100 µM, respectively.
The like results for `O=C1Cc2c(cccc2C(=O)N[C@H]2C[C@H](Cn3ccnc3)C2)N1` were, in that order, more than 99.5 µM and more than 100 µM.
The like results for `Cc1c(C(=O)Nc2cc(C(=O)N3CCC(O)CC3)ccn2)cc(C2CC2)n1C` were, in that order, more than 99.5 µM and more than 100 µM.
The like results for `Cc1c(C(=O)Nc2cc(C(=O)N3CCNC(=O)C3)ccn2)cc(C2CC2)n1C` were, in that order, more than 99.5 µM and more than 100 µM.
Turning to `Cn1nccc1-c1cc(NC(=O)c2cc(F)cc3[nH]ncc23)cc2c1CNC2`, the IC50 turned out to be 54.1 µM in experiment [1] and 81.4 µM in experiment [2].
The like results for `Cc1c(C(=O)Nc2cc(C(N)=O)ccn2)cc(C2CC2)n1C` were, in that order, more than 99.5 µM and more than 100 µM.
The like results for `CN1CCc2c([nH]c3ccc(C(=O)Nc4ccc5c(c4)CNC5)cc23)C1=O` were, in that order, more than 99.5 µM and more than 100 µM.
In the case of `C=CC[C@H]1NCc2cc(NCc3cc(Cl)cc4[nH]ncc34)ccc21`, the IC50 in experiment [1] was more than 99.5 µM; in experiment [2] it was more than 100 µM.
The like results for `Cc1c(C(=O)Nc2cc(C(=O)N3CCOC[C@H](O)C3)ccn2)cc(C2CC2)n1C` were, in that order, more than 99.5 µM and more than 100 µM.
The like results for `Cc1c(C(=O)Nc2cc(C(=O)N3CCOCC3)ccn2)cc(C2CC2)n1C` were, in that order, more than 99.5 µM and more than 100 µM.
The like results for `Cc1c(C(=O)Nc2cc(C(=O)N3CCCNC(=O)C3)ccn2)cc(C2CC2)n1C` were, in that order, more than 99.5 µM and more than 100 µM.
On to `O=C(Nc1ccc2c(c1)CN[C@H]2CO)c1cc(F)cc2[nH]ncc12`, for which the IC50 in experiment [1] is more than 99.5 µM; in experiment [2], more than 100 µM.
The corresponding values for `Cc1c(C(=O)Nc2cc(Br)c3c(c2)COC3)cc(C2CC2)n1C` are more than 99.5 µM and more than 100 µM.
The like results for `NCc1csc2cc(C(=O)Nc3cc([C@H]4CCOC4)ccn3)ccc12` were, in that order, more than 99.5 µM and more than 100 µM.
